Results published in ChEMBL document CHEMBL2424642, “Heterocyclic glucocorticoid receptor modulators with a 2,2-dimethyl-3-phenyl-N-(thiazol or thiadiazol-2-yl)propanamide core” (Bioorg Med Chem Lett, 2013).

Tests used:
Glucocorticoid receptor [1] = target: T1, Glucocorticoid receptor (Homo sapiens, UniProt P04150); assay: Transactivation of GR-LBD expressed in human HeLa cells co-expressing GAL4-DBD by luciferase reporter gene assay; format: cell-based
T1 sequence (P04150 whole entry): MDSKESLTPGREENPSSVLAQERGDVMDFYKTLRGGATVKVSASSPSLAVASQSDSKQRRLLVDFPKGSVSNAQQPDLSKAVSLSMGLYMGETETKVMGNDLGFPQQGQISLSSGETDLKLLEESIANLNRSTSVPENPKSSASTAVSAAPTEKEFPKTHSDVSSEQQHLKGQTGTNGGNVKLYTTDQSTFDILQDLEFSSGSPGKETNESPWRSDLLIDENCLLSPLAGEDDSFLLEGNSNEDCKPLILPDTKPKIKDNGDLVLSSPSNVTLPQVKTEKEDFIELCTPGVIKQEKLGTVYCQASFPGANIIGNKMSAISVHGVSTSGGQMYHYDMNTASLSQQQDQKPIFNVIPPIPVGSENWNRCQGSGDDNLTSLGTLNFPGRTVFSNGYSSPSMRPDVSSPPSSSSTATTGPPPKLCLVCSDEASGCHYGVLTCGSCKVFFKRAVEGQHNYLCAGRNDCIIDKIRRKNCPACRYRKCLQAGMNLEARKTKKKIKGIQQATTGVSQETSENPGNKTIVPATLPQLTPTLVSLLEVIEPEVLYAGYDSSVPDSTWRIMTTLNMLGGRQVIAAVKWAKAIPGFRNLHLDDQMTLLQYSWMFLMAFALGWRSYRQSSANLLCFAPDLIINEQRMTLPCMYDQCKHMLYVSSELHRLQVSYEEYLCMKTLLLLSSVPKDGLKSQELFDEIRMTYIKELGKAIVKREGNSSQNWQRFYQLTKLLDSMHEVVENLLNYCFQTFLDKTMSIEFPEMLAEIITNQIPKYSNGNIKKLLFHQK

Glucocorticoid receptor [2] = target: T1, Glucocorticoid receptor; assay: Binding affinity to glucocorticoid receptor-LBD (unknown origin) by fluorescence polarization assay
[3] = target: T2, Glucocorticoid receptor (Homo sapiens) (UniProt P04150); assay: Transrepression of glucocorticoid receptor in human A549 cells assessed as inhibition of PMA-induced AP-1 activity by luciferase reporter gene assay relative to dexamethasone; format: cell-based
T2 sequence (whole entry): T1 sequence (P04150 whole entry)

Glucocorticoid receptor [4] = target: T1, Glucocorticoid receptor; assay: Transrepression of glucocorticoid receptor in human A549 cells assessed as inhibition of PMA-induced AP-1 activity by luciferase reporter gene assay; format: cell-based
[5] = target: T3, Glucocorticoid receptor (GR-LBD) (Homo sapiens, UniProt P04150); assay: (§1) Transactivation of GR-LBD expressed in human HeLa cells co-expressing GAL4-DBD by luciferase reporter gene assayrelative to dexamethasone; format: cell-based; conditions: HeLa cells expressing GR-LBD and GAL4-DBD, read-out: Efficacy
T3 sequence (P04150 whole entry): T1 sequence (P04150 whole entry)

Glucocorticoid receptor [6] = target: T1, Glucocorticoid receptor; assay: as §1; format: cell-based; conditions: hela

CC(C)(C(=O)Nc1nccs1)C(c1ccccc1)c1ccc2c(-c3ccc(F)c(Cl)c3)ncn2c1 (centres undefined)
EC50 (Glucocorticoid receptor [1]): > 10000 nM
Ki (Glucocorticoid receptor [2]): 8 nM
Efficacy [3]: 26%
EC50 (Glucocorticoid receptor [4]): 114 nM

CC(C)(C(=O)Nc1nccs1)C(c1ccccc1)c1ccc2c(-c3ccc(C#N)cc3)ncn2c1 (centres undefined)
EC50 (Glucocorticoid receptor [1]): > 10000 nM
Ki (Glucocorticoid receptor [2]): 4 nM
Efficacy [3]: 37%
EC50 (Glucocorticoid receptor [4]): 89 nM

CC(C)(C(=O)Nc1nncs1)C(c1ccccc1)c1ccc2c(-c3ccc(F)cc3)ncn2c1 (centres undefined) [listing 1 of 2 here]
EC50 (Glucocorticoid receptor [1]): 262 nM
Ki (Glucocorticoid receptor [2]): 3 nM
Emax [5]: 66%
EC50 (Glucocorticoid receptor [4]): 36 nM

CC(C)(C(=O)Nc1nccs1)C(c1ccccc1)c1ccc2[nH]ccc2c1 (centres undefined)
Ki (Glucocorticoid receptor [2]): 7 nM
Efficacy [3]: 61%
EC50 (Glucocorticoid receptor [4]): 230 nM

CC(C)(C(=O)Nc1nncs1)C(c1ccccc1)c1ccn2c(-c3ccccc3)ncc2c1 (centres undefined) [listing 1 of 2 here]
EC50 (Glucocorticoid receptor [1]): 2000 nM
Ki (Glucocorticoid receptor [2]): 3 nM
Efficacy (Glucocorticoid receptor [6]): 30%
EC50 (Glucocorticoid receptor [4]): 899 nM

CC(C)(C(=O)Nc1nncs1)C(c1ccccc1)c1ccc2c(-c3ccc(C#N)cc3)ncn2c1 (centres undefined)
EC50 (Glucocorticoid receptor [1]): > 10000 nM
Ki (Glucocorticoid receptor [2]): 2 nM
Efficacy [3]: 37%
EC50 (Glucocorticoid receptor [4]): 140 nM

CC(C)(C(=O)Nc1nccs1)C(c1ccccc1)c1ccc2cnccc2c1 (centres undefined)
Ki (Glucocorticoid receptor [2]): 15 nM
EC50 (Glucocorticoid receptor [4]): > 10000 nM

CC(C)(C(=O)Nc1nccs1)C(c1ccccc1)c1cc(-c2ccc(F)cc2)c2ncccc2c1 (centres undefined)
Ki (Glucocorticoid receptor [2]): 285 nM
EC50 (Glucocorticoid receptor [4]): > 10000 nM

CC(C)(C(=O)Nc1nccs1)C(c1ccccc1)c1ccc2c(-c3cccc(C#N)c3)ncn2c1 (centres undefined)
EC50 (Glucocorticoid receptor [1]): > 10000 nM
Ki (Glucocorticoid receptor [2]): 4 nM
Efficacy [3]: 30%
EC50 (Glucocorticoid receptor [4]): 225 nM

CC(C)(C(=O)Nc1nncs1)C(c1ccccc1)c1ccn2c(-c3ccccc3)ncc2c1 (single isomer, unassigned; enantiomer 2) [listing 1 of 2 here]
Efficacy [3]: 61%

CC(C)(C(=O)Nc1nccs1)C(c1ccccc1)c1ccn2c(-c3ccccc3)ncc2c1 (centres undefined) [listing 1 of 2 here]
EC50 (Glucocorticoid receptor [1]): 360 nM
Ki (Glucocorticoid receptor [2]): 5 nM
Emax [5]: 32%
EC50 (Glucocorticoid receptor [4]): 60 nM

CC(C)(C(=O)Nc1nncs1)C(c1ccccc1)c1ccc2c(-c3ccc(F)cc3)ncn2c1 (centres undefined) [listing 2 of 2 here]
Efficacy [3]: 68%

CC(C)(C(=O)Nc1nccs1)C(c1ccccc1)c1ccc2c(-c3ccc(F)cc3)ncn2c1 (single isomer, unassigned; enantiomer 2) [listing 1 of 2 here]
Efficacy [3]: 73%

CC(C)(C(=O)Nc1nccs1)C(c1ccccc1)c1ccc2cncn2c1 (centres undefined)
EC50 (Glucocorticoid receptor [4]): > 10000 nM

CC(C)(C(=O)Nc1nccs1)C(c1ccccc1)c1ccc2c(ccn2-c2ccc(F)cc2)c1 (centres undefined)
Efficacy [3]: 60%
EC50 (Glucocorticoid receptor [4]): 220 nM

CC(C)(C(=O)Nc1nccs1)C(c1ccccc1)c1ccc2c(-c3ccc(F)cc3)ncn2c1 (centres undefined) [listing 1 of 2 here]
EC50 (Glucocorticoid receptor [1]): 103 nM
Ki (Glucocorticoid receptor [2]): 3 nM
Emax [5]: 74%
EC50 (Glucocorticoid receptor [4]): 16 nM

CC(C)(C(=O)Nc1nccs1)C(c1ccccc1)c1ccc2c(-c3ccc(F)cc3)ncn2c1 (centres undefined) [listing 2 of 2 here]
Efficacy [3]: 66%

CC(C)(C(=O)Nc1nncs1)C(c1ccccc1)c1ccc2c(-c3cccc(C#N)c3)ncn2c1 (centres undefined)
EC50 (Glucocorticoid receptor [1]): > 10000 nM
Ki (Glucocorticoid receptor [2]): 4 nM
Efficacy [3]: 32%
EC50 (Glucocorticoid receptor [4]): 1350 nM

CC(C)(C(=O)Nc1nncs1)C(c1ccccc1)c1ccc2c(-c3ccc(F)cc3)ncn2c1 (single isomer, unassigned; enantiomer 2) [listing 1 of 2 here]
Efficacy [3]: 72%

CC(C)(C(=O)Nc1nccs1)C(c1ccccc1)c1ccc2ncccc2c1 (centres undefined)
Ki (Glucocorticoid receptor [2]): 85 nM
EC50 (Glucocorticoid receptor [4]): > 10000 nM

CC(C)(C(=O)Nc1nccs1)C(c1ccccc1)c1ccc2c(-c3ccc(F)cc3)ncn2c1 (single isomer, unassigned; enantiomer 2) [listing 2 of 2 here]
EC50 (Glucocorticoid receptor [1]): 60 nM
Ki (Glucocorticoid receptor [2]): 1 nM
Efficacy (Glucocorticoid receptor [6]): 69%
EC50 (Glucocorticoid receptor [4]): 6 nM

CC(C)(C(=O)Nc1nncs1)C(c1ccccc1)c1ccc2c(-c3ccc(F)cc3)ncn2c1 (single isomer, unassigned; enantiomer 1) [listing 1 of 2 here]
Efficacy [3]: 24%

CC(C)(C(=O)Nc1nccs1)C(c1ccccc1)c1ccc2c(-c3ccc(F)cc3F)ncn2c1 (centres undefined)
EC50 (Glucocorticoid receptor [1]): 78 nM
Ki (Glucocorticoid receptor [2]): 2 nM
Efficacy [3]: 75%
Emax [5]: 73%
EC50 (Glucocorticoid receptor [4]): 14 nM

CC(C)(C(=O)Nc1nncs1)C(c1ccccc1)c1ccc2c(-c3ccc(F)cc3)ncn2c1 (single isomer, unassigned; enantiomer 2) [listing 2 of 2 here]
EC50 (Glucocorticoid receptor [1]): 118 nM
Ki (Glucocorticoid receptor [2]): 2 nM
Efficacy (Glucocorticoid receptor [6]): 65%
EC50 (Glucocorticoid receptor [4]): 24 nM

CC(C)(C(=O)Nc1nncs1)C(c1ccccc1)c1ccc2c(-c3ccc(F)c(Cl)c3)ncn2c1 (centres undefined)
EC50 (Glucocorticoid receptor [1]): > 10000 nM
Ki (Glucocorticoid receptor [2]): 5 nM
Efficacy [3]: 20%
EC50 (Glucocorticoid receptor [4]): 111 nM

CC(C)(C(=O)Nc1nccs1)C(c1ccccc1)c1ccn2cncc2c1 (centres undefined)
Ki (Glucocorticoid receptor [2]): 18 nM
Efficacy [3]: 39%
EC50 (Glucocorticoid receptor [4]): 1200 nM

CC(C)(C(=O)Nc1nncs1)C(c1ccccc1)c1ccn2c(-c3ccccc3)ncc2c1 (single isomer, unassigned; enantiomer 2) [listing 2 of 2 here]
EC50 (Glucocorticoid receptor [1]): 613 nM
Ki (Glucocorticoid receptor [2]): 1 nM
Emax [5]: 43%
EC50 (Glucocorticoid receptor [4]): 254 nM

CC(C)(C(=O)Nc1nccs1)C(c1ccccc1)c1ccc2nncn2c1 (centres undefined)
EC50 (Glucocorticoid receptor [4]): > 10000 nM

CC(C)(C(=O)Nc1nncs1)C(c1ccccc1)c1ccc2c(-c3ccc(F)cc3)ncn2c1 (single isomer, unassigned; enantiomer 1) [listing 2 of 2 here]
EC50 (Glucocorticoid receptor [1]): > 10000 nM
Ki (Glucocorticoid receptor [2]): 6 nM
EC50 (Glucocorticoid receptor [4]): 1200 nM

CC(C)(C(=O)Nc1nccs1)C(c1ccccc1)c1ccn2c(-c3ccccc3)ncc2c1 (centres undefined) [listing 2 of 2 here]
Efficacy [3]: 70%

CC(C)(C(=O)Nc1nncs1)C(c1ccccc1)c1ccn2c(-c3ccccc3)ncc2c1 (single isomer, unassigned; enantiomer 1) [listing 1 of 2 here]
Efficacy [3]: 34%

CC(C)(C(=O)Nc1nncs1)C(c1ccccc1)c1ccc2c(-c3cccc(CO)c3)ncn2c1 (centres undefined)
EC50 (Glucocorticoid receptor [1]): > 10000 nM
Ki (Glucocorticoid receptor [2]): 5 nM
EC50 (Glucocorticoid receptor [4]): > 5000 nM

CC(C)(C(=O)Nc1nncs1)C(c1ccccc1)c1ccn2c(-c3ccccc3)ncc2c1 (centres undefined) [listing 2 of 2 here]
Efficacy [3]: 66%

CC(C)(C(=O)Nc1nncs1)C(c1ccccc1)c1ccc2c(-c3ccc(F)cc3F)ncn2c1 (centres undefined)
EC50 (Glucocorticoid receptor [1]): 117 nM
Ki (Glucocorticoid receptor [2]): 1 nM
Efficacy [3]: 69%
Emax [5]: 61%
EC50 (Glucocorticoid receptor [4]): 15 nM

CC(C)(C(=O)Nc1nncs1)C(c1ccccc1)c1cc(-c2ccc(F)cc2)c2ncccc2c1 (centres undefined)
Ki (Glucocorticoid receptor [2]): 196 nM
EC50 (Glucocorticoid receptor [4]): > 10000 nM

CC(C)(C(=O)Nc1nncs1)C(c1ccccc1)c1ccn2c(-c3ccccc3)ncc2c1 (single isomer, unassigned; enantiomer 1) [listing 2 of 2 here]
EC50 (Glucocorticoid receptor [1]): > 10000 nM
Ki (Glucocorticoid receptor [2]): 5 nM
EC50 (Glucocorticoid receptor [4]): 1120 nM

CC(C)(C(=O)Nc1nccs1)C(c1ccccc1)c1ccc2c(-c3ccc(F)cc3)ncn2c1 (single isomer, unassigned; enantiomer 1)
EC50 (Glucocorticoid receptor [1]): > 10000 nM
Ki (Glucocorticoid receptor [2]): 4 nM
EC50 (Glucocorticoid receptor [4]): > 5000 nM

CC(C)(C(=O)Nc1nccs1)C(c1ccccc1)c1ccn2c(-c3ccccc3)ncc2c1 (single isomer, unassigned; enantiomer 1)
EC50 (Glucocorticoid receptor [1]): > 10000 nM
Ki (Glucocorticoid receptor [2]): 11 nM
EC50 (Glucocorticoid receptor [4]): > 2500 nM
